The source of these data is patent US6130053A, “Method for selecting compounds for inhibition of neoplastic lesions” (priority 1999, dated 2000).

The subject of assay [1] is PKG activity in SW480 cells. The experiment in a line: PKG activity in SW480 cells (phosphorylation of GST-cGB-PDE5). The settings on record: 48 hrs; with and without added cGMP; exisulind 200-600 μM, E4021 0.1-10 μM. Type of assay: cell-based, human. How it is done: Two different types of PDE inhibitors were evaluated for their effects on PKG in neoplastic cells. […], exisulind, was evaluated since it is anti-neoplastic. […] No. 09/173,375 to Liu et al filed Oct. 15, 1998. To test the effect of cGMP-specific PDE inhibition on neoplasia containing the APC mutation, SW480 colon cancer cells were employed. SW 480 is known to contain the APC mutation. […] The liquid media are aspirated from the dishes (the cells will attach themselves to the dishes). […] Immediately after the cell lysis buffer is added, the lysed cells are collected by scraping the cells off each dish. The cell lysate from each dish is transferred to a microfuge tube, and the microfuge tubes are incubated at 4° C. for 15 minutes while gently agitating the microfuge tubes to allow the cells to lyse completely. After lysis is complete, the microfuge tubes are centrifuged full speed (14,000 r.p.m.) for 15 minutes. The supernatant from each microfuge tube is transferred to a fresh microfuge tube. A protein assay is then performed on the contents of each microfuge tube because the amount of total protein will be greater in the control than in the drug-treated samples, if the drug inhibits cell growth. Obviously, if the drug does work, the total protein in the drug-treated samples should be […] control. […]

The next assay has as its system β-catenin in SW480 cells. Put plainly: β-catenin level by Western blot in SW480 cells. The class given is cell-based, human. The settings on record: 48 hours. How it is done:
SW480 cells were treated with exisulind or vehicle (0.1% DMSO) for 48 hours. 50 μg supernatant of each cell lysates were loaded to 10% SDS-gel and blotted to nitrocellulose membrane, and the membrane was probed with rabbit-anti-β-catenin and rabbit anti-PKG antibodies.
This observation was made by culturing SW480 cells with either 200-600 μM exisulind or vehicle (0.1% DMSO). The cells are harvested 48 hours post treatment and processed for immunoblotting. Immuno-reactive protein can be detected by western blot. […] Thus, using PKG activity in neoplastia as a screening tool to select compounds as anti-neoplastics is useful.

Turning to `CC1=C(CC(=O)O)c2cc(F)ccc2/C1=C\c1ccc(S(C)(=O)=O)cc1` [Exisulind, 5-fluoro-2-methyl-1-(p-methylsulfonylbenzylidene)-3-indenylacetic acid], the “PKG activity relative to control” value in assay [1] is “causes PKG activity to increase in a dose-dependent manner”. The “β-catenin level by Western blot” value with β-catenin in SW480 cells is listed as “drop of β-catenin”.
